Here are results for three molecules from EP2559435A1, “Rotigotine in the treatment of hemispatial neglect, stroke and deficits following stroke” (UCB Pharma GmbH, priority 2011, dated 2013).

Like-named read-outs stand apart in the source and are kept apart here.

Experiment [1] relates to patients with hernispatial neglect and unilateral weakness following right hemisphere stroke. The experiment is described as follows: Motricity Index (motor function on the affected side), clinical trial. The format is in vivo. Conditions: in some patients. As to the method: (§1) A commercially available rotigotine TTS has been tested in a double-blind, randomised, placebo controlled trial of the dopamine agonist rotigotine in 16 patients aged over 18 years with hernispatial neglect and unilateral weakness following right hemisphere stroke.
(§2) Patients were assessed with a battery of standardised neglect tests, as well as with tests of working memory, selective and sustained attention and motor function. A replicated ABA double-blind, placebo-controlled N-of-1 randomised design (Edgington E, Onghena P. Randomization Tests (Statistics: a Series of Textbooks and Monographs). 4th ed. Chapman & Hall/CRC: 2007), which allows to evaluate the effectiveness of an intervention in small sample sizes. Each patient's performance was measured in three phases, each consisting of several assessment sessions: before treatment (phase A1), while receiving transdermal rotigotine (phase B) and after discontinuation of the drug - post treatment phase (phase A2). The exact duration of each phase was randomised across patients. […]
(§3) Phase A1 started on session 1 and its duration was randomised (across individuals) to between 5 and 9 days. […] Finally, phase A2, when patients were assessed after the discontinuation of rotigotine, was randomised to begin between sessions 13 and 17, and it lasted for the remaining 4 to 8 sessions. […]

The test system is the same in experiment [2]. The experiment is described as follows: Mesulam cancellation (visual search) task of hemispatial neglect, clinical trial. The class given is in vivo. The method, then: as §1
(§4) Patients were assessed with a battery of standardised neglect tests, as well as with tests of working memory, selective and sustained attention and motor function. A replicated ABA double-blind, placebo-controlled N-of-1 randomised design (Edgington E, Onghena P. Randomization Tests (Statistics: a Series of Textbooks and Monographs). 4th ed. Chapman & Hall/CRC: 2007), which allows to evaluate the effectiveness of an intervention in small sample sizes. Each patient's performance was measured in three phases, each consisting of several assessment sessions: before treatment (phase A1), while receiving transdermal rotigotine (phase B) and after discontinuation of the drug - post treatment phase (phase A2). The exact duration of each phase was randomised across patients. Performance on rotigotine was compared with the pre-treatment baseline and post-treatment follow-up phases.
(§5) The effects of the drug were evaluated for the whole group of 16 patients, and, separately for two subgroups with different extent of involvement of the prefrontal cortex in the stroke lesion. The subgroups are defined according to the extent of involvement of the prefrontal cortex in the stroke lesion: a minimal prefrontal involvement subgroup (0%-15% of the prefrontal cortex affected) and an extensive prefrontal subgroup (33%-55% of the prefrontal cortex affected).
Phase A1 started on session 1 and its duration was randomised (across individuals) to between 5 and 9 days. Observations during this phase established the baseline performance. Phase B, when rotigotine was administered, could commence on day 6 to day 10, and its duration was a minimum of 7 and a maximum of 11 sessions. During treatment phase, a rotigotine 9 mg patch (4mg/24hr transdermal absorption) was applied daily and worn for 24 hours a day. Finally, phase A2, when patients were assessed after the discontinuation of rotigotine, was randomised to begin between sessions 13 and 17, and it lasted for the remaining 4 to 8 sessions.
Each patient was randomly assigned a pattern of onset and duration of the treatment and baseline phases, within the duration limits described above. In this example, the patient had 6 baseline assessments (phase A1, sessions 1-6), followed by 8 days on rotigotine (sessions 7-14) and 6 follow-up assessments (phase A2, sessions 15-20) after discontinuation of the drug. […] Mid-grey depicts any additional sessions in phases A1 and A2 when the patient received placebo patches. Some other possible permutations of pre-treatment, treatment and post-treatment phases within the constraints of the design are shown in figure 1b. The actual difference in performance between treatment (B) and the off-treatment phases (A1 and A2) was ranked against the differences between phases produced by all other possible combinations of treatment allocation, given the limits in phase onset and duration. In total, there were 15 possible permutations.
This visuospatial scanning test-further described in Mesulam, M.-M. Principles of Behavioural Neurology; tests of directed attention and memory (Davis, Philadelphia, 1985) - with a cluttered array of symbols is performed on A3 sheets. In this test visual target objects are identified among distracters; targets identified are marked by the participant (black circles in fig. 2). There was a 2 minutes time limit for this task. […] Furthermore, on rotigotine, there was an improvement in the spatial bias of the responses, measured as the proportion of the targets identified on the left when compared to those identified on the right. In the minimal prefrontal involvement subgroup, rotigotine had again a significant positive effect in the number of targets identified on the left. […]

Experiment [3] shares this test system. The experiment is described as follows: Vertical Corsi spatial working memory task, clinical trial. The format is in vivo. Conditions: in some patients. As to the method:
as §1, §2, §3

Experiment [4] has the same test system. Put plainly: Touchscreen cancellation task of hemispatial neglect, clinical trial. The format is in vivo. As to conditions: group of all 16 patients; on rotigotine vs before treatment onset. The method, then:
as §1, §2, §3

Experiment [5] shares this test system. Put plainly: Selective and sustained attention (vigilance) task, clinical trial. The format is in vivo. The method, then: as §1, §4, §5
Phase A1 started on session 1 and its duration was randomised (across individuals) to between 5 and 9 days. Observations during this phase established the baseline performance. […] Finally, phase A2, when patients were assessed after the discontinuation of rotigotine, was randomised to begin between sessions 13 and 17, and it lasted for the remaining 4 to 8 sessions.
The subject had to identify high- or low- sallence targets among non targets on either side. % correct and reaction times are measured, further described in Barcelo et al. Nature Neuroscience 2000 3:399-403.
Participants detected targets (inverted triangles) among sequences of distractors (upright triangles) randomly presented to the ipsilesional and contralesional visual fields. […]
As a measure of selective attention, the ratio of the reaction time (RT) to high visual salience targets over the RT to low visual salience targets was used. Furthermore, using this task, sustained attention was quantified over time, by measuring the difference in RT and % correct responses between the first and the second half of each experimental session. […]

For another experiment, the system named is neglect patients. Conditions: cited from earlier work.

As to `CCCN(CCc1cccs1)C1CCc2c(O)cccc2C1` (single isomer, unassigned; (-)) [rotigotine, (-)-5,6,7,8-tetrahydro-6-[propyl-[2-(2thienyl)ethyl]-amino]-1-naphthalenol], the “motor function on the affected side (Motricity Index of the affected arm, leg and side)” value in experiment [1] is reported as “improved motor function on the affected side”. The “number of targets found on the left side” value in experiment [2] (entire group of 16 patients, on rotigotine vs pre- and post-treatment phases averaged or post-treatment phase alone) is recorded as “significantly higher”. In addition, in experiment [2] (entire group of 16 patients, rotigotine 9 mg patch (4mg/24hr) daily, actual treatment allocation higher than mean difference of all possible permutations), the “difference on- and off-treatment in the number of targets found on the left side relative to baseline” value was found to be 12.8%. In experiment [2] (entire group of 16 patients, rotigotine 9 mg patch (4mg/24hr) daily, actual treatment allocation in comparison to all possible permutations), the “effect size: less rightward bias relative to baseline (spatial bias in visual search)” value is reported as 8.1%. Also, the “spatial bias in visual search” value in experiment [2] (entire group, on rotigotine vs post-treatment phase or both off-treatment phases) was “improved significantly”. The “decrease in the number of targets found in a smaller area on the right hand side” value in experiment [2] (entire patient group, during treatment) was “not statistically significant”. For the same molecule, the spatial bias result in experiment [2] (extensive prefrontal group, on rotigotine) was “improved significantly”. Besides, the “number of left targets found” value in experiment [2] (extensive prefrontal subgroup (33%-55% of prefrontal cortex affected), on rotigotine) is recorded as “did not reach significance”; in experiment [2] (minimal prefrontal subgroup (0%-15% of prefrontal cortex affected), on rotigotine), “significantly higher”. In experiment [2] (group of all 16 patients, on rotigotine), the “number of targets identified in total” value is listed as “significantly larger number of targets”. The “spatial working memory (spatial span)” value in experiment [3] was “improved spatial working memory”. The targets identified result in experiment [4] is given as “more targets were identified”. For the same molecule, the “ratio of RT to high salience vs low salience targets” value in experiment [5] (entire group, left sided targets, during treatment vs pre-treatment baseline) is listed as “significant increase”; in experiment [5] (entire group, left sided targets, treatment vs post-treatment baseline or average of both off-treatment phases), “only marginal”; in experiment [5] (extensive prefrontal subgroup, overall for both left and right-sided targets) it was “significant beneficial effect”; in experiment [5] (minimal prefrontal subgroup (e.g. left sided targets, comparison with off-treatment average)) it was “no significant effect”.

For the molecule `CN1CCc2cccc3c2[C@H]1Cc1ccc(O)c(O)c1-3` [Apomorphine], in the experiment on neglect patients (four neglect patients tested (Geminiani et al. 1998)), the “effect on hemispatial neglect” value is recorded as “transient improvement in three out of four neglect patients”.

In the case of `NC12CC3CC(CC(C3)C1)C2` [amantadine], in the experiment with neglect patients (small-scale trial in four neglect patients (Buxbaum et al. 2007)), the “effect on hemispatial neglect” value is given as “did not demonstrate any beneficial effect”.
